Test results as given in patent publication US6531453B1, “NKT cell activators containing α-glycosylceramides” (Kirin Beera Kabushiki Kaisha, priority 1997, dated 2003).

Key:
[1] = system: 4% DSS-induced mouse colitis (CDF1 mice); assay: Suppression of 4% DSS-induced mouse colitis; assay type: in vivo; conditions: KRN 7000 100 μg/kg i.p. days 1, 5, 9, IL-12 1 μg/mouse i.p. days 1, 3, 5, 7, 9
Method: Ten animals per group of CDF1 mice (6 weeks of age, females) (Japan SLC Inc.) were used for the following experiment. Day 0 was defined as the day when a 4% DSS solution (4% (w/v) dextran sodium sulfate (DSS) dissolved in water) was first provided as drinking water. The animals were divided into 3 groups, i.e., a group to which 100 μg/kg of KRN 7000 were intraperitoneally administered on days 1, 5, and 9, a group to which 1 μg/mouse of IL-12 was intraperitoneally administered on days 1, 3, 5, 7 and 9, and an untreated (control) group. Body weight was measured and survival or death of the animals were observed daily. Changes in body weight and survival rate are shown in FIG. 5A and 5B, respectively.

[2] = system: mouse lymphoma YAC-1 cells; assay: Cytotoxic activity of spleen NKT cells against tumor cells (4 hour 51Cr-release) after i.v. administration to RAG-1KO/Vα14tg/Vβ8.2tg mice; assay type: in vivo; conditions: 100 μg/kg i.v., spleen taken 24 hours later, FIG. 1
Method: A vehicle (physiological saline containing 0.025% Polysolvate 20) or 100 μg/kg of KRN 7000 was intravenously administered to RAG-1KO/Vα14tg/Vβ8.2tg mice (bearing a large number of NKT cells but not B cells, T cells or NK cells in their lymphocyte fraction), and 24 hours later, the spleen was taken out from each mouse to prepare spleen cells by conventional methods. RAG-1KO/Vαl14tg/Vβ8.2tg mice were established by deletion of the RAG-1 gene and forcible expression of Vα14 and Vβ8.2 gene (Kawano T. et al., Science, 278, 1626-1629 (1997)). Thesemice are available from Masaru Taniguchi, School of Medicine, Chiba University. Cytotoxic activity of these spleen cells to mouse lymphoma YAC-1 cells was studied by the 4 hour-^51Cr-release method (Kobayashi, E. et al., Oncology Res., 7, 529 ([…])).

[3] = system: Vα14+ NKT-deficient (Jα281KO) mice; assay: Induction of abortion in Vα14+ NKT-deficient (Jα281KO) mice; assay type: in vivo, mouse; conditions: same amount, same manner, PBS group 5.0%
Method: (§1) C57BL/6 mice (Japan SLC) were used for the following experiment. The day when a vaginal plug was observed was defined as day 0. Pregnant mice were divided into 2 groups (6 mice per group), i.e., one group to which 150 μg/kg of KRN 7000 were intravenously administered on days 7, 8 and 9, and another to which PBS (phosphate-buffered saline) was administered in the same way. On day 12, the uterus was removed to observe the state of the embryo.
When the same amount of KRN 7000 was administered to Vα14^+ NKT-deficient (Jα281KO) mice (Kawano, T. et al., Science, 278, 1626-1629 (1997)) in the same manner, the abortion rate was 5.3%, which was equivalent to that for the PBS-administered group (5.0%). The Vα14^+ NKT-deficient mice are available from Masaru Taniguchi, School of Medicine, Chiba University.

[4] = system: mice; assay: Acute toxicity test by a single administration; assay type: in vivo; conditions: intravenous, 10 mg/kg
Excerpt: (§2) The compound of Example 1 was intravenously administered to mice.

[5] = Acute toxicity test by a single administration; assay type: in vivo; conditions: mouse, in vivo, 10 mg/kg; intravenous, single administration, mice
Excerpt: as §2

[6] = system: MRL lpr/lpr mice; assay: Survival period of MRL lpr/lpr mice; assay type: in vivo, mouse; conditions: 100 μg/kg i.p. twice a week from the age of 5 weeks, 10 animals per group; all vehicle mice died within 250 days, FIG. 4
Method: Ten animals per group of female MRL lpr/lpr mice were used for the following experiment. MLR mice purchased at the age of 4 weeks were randomly divided into 2 groups (10 animals per group). A vehicle (a physiological saline solution containing 0.025% Polysolvate 20) or KRN 7000 (100 μg/kg) was intraperitoneally administered twice a week (on Tuesday and Friday) to the animals starting from the age of 5 weeks. Survival of the animals was observed every day.

[7] = system: pregnant C57BL/6 mice; assay: Induction of abortion in pregnant C57BL/6 mice; assay type: in vivo, mouse
Method: as §1

[8] = system: MRL lpr/lpr mice; assay: Suppression of lymph node swelling in MRL lpr/lpr mice; assay type: in vivo, mouse; conditions: 100 μg/kg i.p. twice a week from the age of 11 weeks
Method: Ten animals per group of female MRL lpr/lpr mice (Sakamoto, A. Clin. Immunol., 28, 1558 (1966)), were used for the following experiment. During the observation of 21 MRL mice purchased at the age of 6 weeks, swelling of the axillary lymph nodes was recognized in one mouse at the age of 10 weeks. Accordingly, the other 20 mice were randomly divided into 2 groups. A vehicle (a physiological saline solution containing 0.025% Polysolvate 20) or KRN 7000 (100 μg/kg) was intraperitoneally administered twice a week (on Tuesday and Friday) to the abovementioned 2 groups of animals starting from the age of 11 weeks. Axillary and inguinal lymph nodes were examined twice a week to observe the progress of lymph node swelling with time. The lymph nodes were scored into 4 grades, i.e., −(0), +(1), ++(2) and +++(3) as a function of size. The total scores of both right and left sides of the axillary lymph node (A) or inguinal lymph node (B) were expressed as lymph node swelling indexes as shown in FIG. 3.

[9] = system: C57BL/6 mice with MOG-induced EAE; assay: Suppression of the onset of experimental autoimmune encephalomyelitis (EAE); assay type: in vivo, mouse; conditions: 20 μg/kg i.p. on days 1, 5, 8, 12 and 15, FIG. 6B
Method: […]. Mice were immunized by subcutaneously injecting this emulsion on day 0 and day 7. Further, 500 ng of pertussis toxin were intraperitoneally administered on day 1 and […] induce experimental autoimmune encephalomyelitis (EAE) in mice. The animals were divided into 2 groups, i.e., a group to which 20 μg/kg of KRN 7000 were intraperitoneally administered on days 1, 5, 8, 12 and 15 and a group to which a vehicle (0.5%, Polysolvate 20) was administered in a similar manner. The level of EAE symptoms was observed every day.

In the case of CCCCCCCCCCCCCCCCCCCCCCCCCC(=O)N[C@@H](CO[C@H]1O[C@H](CO)[C@H](O)[C@H](O)[C@H]1O)[C@H](O)[C@H](O)CCCCCCCCCCCCCC [KRN 7000, (2S,3S,4R)-1-(α-D-galactopyranosyloxy)-2-hexacosanoylamino-3,4-octadecanediol], the “time of weight loss as compared with the control group” value ([1]; FIG. 5A) is reported as “at a later period”, the “survival period as compared with the control group” value ([1]; FIG. 5B) is reported as “significantly longer” and the “cytotoxic activity against YAC-1 cells of spleen cells vs vehicle-administered mice” value [2] is reported as “significantly higher”. For the same compound, the abortion rate [3] was 5.3%, the toxicity symptoms [4] was “no particular symptom” and the LD50 [5] was over 10 mg/kg. For the same compound, the “mice surviving at 350 days after the start of the administration” value [6] was “three mice”, the “embryos dead and resorbed” value ([7]; 150 μg/kg i.v. on days 7, 8 and 9, uterus on day 12, of the total of 36 embryos) was 12 and the abortion rate ([7]; 150 μg/kg i.v. on days 7, 8 and 9, PBS group 5.6%) was 33%. The “swelling in the axillary lymph nodes with aging” value ([8]; FIG. 3A) was “clearly suppressed”, the “swelling in the inguinal lymph nodes with aging” value ([8]; FIG. 3B) was “clearly suppressed” and the “mice that died of EAE” value ([9]; 10 mice, vehicle: 80% died) was 2. For the same compound, the “mice showing the EAE onset” value ([9]; vehicle: all mice) was 4 out of 10.
